Consider 23 compounds from US20090042874A1, “ANTIDEPRESSANT HETEROARYL DERIVATIVES OF HETEROCYCLE-FUSED BENZODIOXANS” (WYETH, priority 2007, published 2009).

One data set concerns the target T1, serotonin transporter (Rattus norvegicus, UniProt P31652).
T1 construct: displace ^3H-paroxetine from male rat frontal cortical membranes; from tissue; host or cells: male rat frontal cortex membranes
Description: Displacement of 3H-paroxetine from male rat frontal cortical membranes (serotonin transporter affinity). The class given is binding. The following applies: 3H-paroxetine displacement, read-out: 5-HT Transporter Affinity Ki. From the text:
Affinity of Compounds of the Invention for the Serotonin Transporter
On the technique in general: In a radioligand displacement assay an active substance lowers the binding of a labelled ligand.

In a further data set the target is T2, human 5HT1A receptors (Homo sapiens, UniProt P08908).
T2 construct: expressed in transfected cells; host or cells: CHO cells
T2 sequence (P08908 1-422): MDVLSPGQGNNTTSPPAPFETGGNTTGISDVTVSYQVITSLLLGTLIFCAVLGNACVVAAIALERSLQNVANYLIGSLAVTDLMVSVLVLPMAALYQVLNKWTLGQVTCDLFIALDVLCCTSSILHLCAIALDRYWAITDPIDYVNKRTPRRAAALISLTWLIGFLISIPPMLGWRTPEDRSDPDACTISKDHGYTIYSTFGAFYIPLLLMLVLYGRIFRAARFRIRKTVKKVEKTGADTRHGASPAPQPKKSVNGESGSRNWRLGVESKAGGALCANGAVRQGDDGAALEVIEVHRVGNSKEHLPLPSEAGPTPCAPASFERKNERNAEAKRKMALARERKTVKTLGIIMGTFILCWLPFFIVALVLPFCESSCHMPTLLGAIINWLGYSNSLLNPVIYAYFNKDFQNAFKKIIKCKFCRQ
Description: Displacement of [3H] 8-OH-DPAT from 5HT1A receptor, CHO cells stably transfected with human 5HT1A receptors. It counts as binding. The following applies: [3H] 8-OH-DPAT displacement, CHO cells with human 5HT1A; read-out: 5HT1A Receptor Affinity Ki. An excerpt:
High affinity for the serotonin 5HT1A receptor was established by testing the claimed compound's ability to displace [^3H] 8-OH-DPAT (dipropylamino-tetralin) from the 5HT1A serotonin receptor following a modification of the procedure of Hall et al., J. Neurochem. 44, 1685 (1985) which utilizes CHO cells stably transfected with human 5HT1A receptors.

Structures are written as SMILES. Counter-ions that a name gives are not always drawn.

T1 sequence (P31652 whole entry): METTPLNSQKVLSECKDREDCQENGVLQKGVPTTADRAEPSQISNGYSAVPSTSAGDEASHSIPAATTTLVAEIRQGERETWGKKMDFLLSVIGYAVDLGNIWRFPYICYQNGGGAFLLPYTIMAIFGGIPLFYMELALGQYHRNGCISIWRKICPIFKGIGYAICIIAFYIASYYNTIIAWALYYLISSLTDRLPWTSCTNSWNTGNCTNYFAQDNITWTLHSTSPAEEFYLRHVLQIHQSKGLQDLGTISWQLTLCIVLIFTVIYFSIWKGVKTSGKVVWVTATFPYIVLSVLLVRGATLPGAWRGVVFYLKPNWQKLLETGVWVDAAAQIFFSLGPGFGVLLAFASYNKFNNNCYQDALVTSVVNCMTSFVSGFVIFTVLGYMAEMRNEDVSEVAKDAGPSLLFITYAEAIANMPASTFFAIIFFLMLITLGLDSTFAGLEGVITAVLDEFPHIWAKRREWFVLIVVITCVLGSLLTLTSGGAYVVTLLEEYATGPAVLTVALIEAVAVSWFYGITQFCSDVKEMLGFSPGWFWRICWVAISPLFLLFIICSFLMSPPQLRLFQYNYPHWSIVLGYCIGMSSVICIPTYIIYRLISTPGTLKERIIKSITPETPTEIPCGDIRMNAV

For the compound `Cc1ccc2c3c(ccc2n1)OC[C@H](CN1CCC(Cc2ccc4c(c2)N(C)C(=O)CO4)CC1)O3` [Example 12, 4-Methyl-6-[(1-{[(2S)-8-methyl-2,3-dihydro[1,4]dioxino[2,3-f]quinolin-2-yl]methyl}piperidin-4-yl)methyl]-2H-1,4-benzoxazin-3(4H)-one dihydrochloride salt], the Ki on serotonin transporter was 6.65 nM; at human 5HT1A receptors, 0.29 nM.

For the compound `Cc1ccc2c3c(ccc2n1)OC[C@H](CN1CCC(Oc2ccc4c(c2)N(C)C(=O)CO4)CC1)O3` (as salt: hydrochloride) [Example 5, 4-Methyl-6-[(1-{[(2S)-8-methyl-2,3-dihydro[1,4]dioxino[2,3-f]quinolin-2-yl]methyl}piperidin-4-yl)oxy]-2H-1,4-benzoxazin-3(4H)-one dihydrochloride salt], the melting point is 164 °C (dec.).

As for `Cc1ccc2c3c(ccc2n1)OC[C@H](CNC1CCN(c2ccc4c(c2)NC(=O)CO4)CC1)O3` (as salt: hydrochloride) [Example 18, 6-(4-{[(8-methyl-2,3-dihydro[1,4]dioxino[2,3-f]quinolin-2-yl)methyl]amino}piperidin-1-yl)-2H-1,4-benzoxazin-3(4H)-one dihydrochloride salt], the melting point was 240 °C (dec.).

`Cc1ccc2c3c(ccc2n1)OC[C@H](CN1CCCC(Cc2ccc4c(c2)NC(=O)CO4)C1)O3` (stereo partly drawn) (as salt: hydrochloride) [Example 16, 6-[(1-{[(2S)-8-Methyl-2,3-dihydro[1,4]dioxino[2,3-f]quinolin-2-yl]methyl}piperidin-3-yl)methyl]-2H-1,4-benzoxazin-3(4H)-one dihydrochloride salt] returned a melting point of 200 to 205 °C.

In the case of `Cc1ccc2c3c(ccc2n1)OC[C@H](CN1CCC(CCc2ccc4c(c2)N(C)C(=O)CO4)CC1)O3` [Example 13, 4-Methyl-6-[2-(1-{[(2S)-8-methyl-2,3-dihydro[1,4]dioxino[2,3-f]quinolin-2-yl]methyl}piperidin-4-yl)ethyl]-2H-1,4-benzoxazin-3(4H)-one dihydrochloride salt], the Ki on serotonin transporter amounted to 13.9 nM; at human 5HT1A receptors it was 0.63 nM.

Consider `Cc1ccc2c3c(ccc2n1)OC[C@H](CNC1CCN(c2ccc4c(c2)NC(=O)CO4)CC1)O3` [Example 18, 6-(4-{[(8-methyl-2,3-dihydro[1,4]dioxino[2,3-f]quinolin-2-yl)methyl]amino}piperidin-1-yl)-2H-1,4-benzoxazin-3(4H)-one dihydrochloride salt], for which the inhibition constant Ki stood at 35.2 nM on serotonin transporter and 0.93 nM at human 5HT1A receptors.

On to `Cc1ccc2c3c(ccc2n1)OC[C@H](CN1CCC(CCc2ccc4c(c2)N(C)C(=O)CO4)CC1)O3` (as salt: hydrochloride) [Example 13, 4-Methyl-6-[2-(1-{[(2S)-8-methyl-2,3-dihydro[1,4]dioxino[2,3-f]quinolin-2-yl]methyl}piperidin-4-yl)ethyl]-2H-1,4-benzoxazin-3(4H)-one dihydrochloride salt], for which the melting point was 185 to 189 °C.

`CNCCCOc1ccc2c(c1)NC(=O)CO2` (as salt: hydrochloride) [Example 11, 6-[3-(Methylamino)propoxy]-2H-1,4-benzoxazin-3(4H)-one] had a melting point of 193 to 194 °C.

`Cc1ccc2c3c(ccc2n1)OC[C@H](CN1CCC(CCc2ccc4c(c2)NC(=O)CO4)CC1)O3` (as salt: hydrochloride) [Example 14, 6-[2-(1-{[(2S)-8-Methyl-2,3-dihydro[1,4]dioxino[2,3-f]quinolin-2-yl]methyl}piperidin-4-yl)ethyl]-2H-1,4-benzoxazin-3(4H)-one dihydrochloride salt] showed a melting point of 202 to 205 °C.

Take `CNCCCOc1ccc2c(c1)NC(=O)CO2` [Example 11, 6-[3-(Methylamino)propoxy]-2H-1,4-benzoxazin-3(4H)-one]: the Ki at serotonin transporter is 81 nM.

The compound `CNCCCCOc1ccc2c(c1)NC(=O)CO2` (as salt: hydrochloride) [Example 10, 6-[4-(Methylamino)butoxy]-2H-1,4-benzoxazin-3(4H)-one hydrochloride salt] had a melting point of 210 to 212 °C.

Regarding `CNCCCCOc1ccc2c(c1)NC(=O)CO2` [Example 10, 6-[4-(Methylamino)butoxy]-2H-1,4-benzoxazin-3(4H)-one hydrochloride salt], the Ki on serotonin transporter turned out to be 58.5 nM.

Turning to `Cc1ccc2c3c(ccc2n1)OC[C@H](CN1CCCC(Cc2ccc4c(c2)N(C)C(=O)CO4)C1)O3` (stereo partly drawn) [Example 15, 4-Methyl-6-[(1-{[(2S)-8-methyl-2,3-dihydro[1,4]dioxino[2,3-f]quinolin-2-yl]methyl}piperidin-3-yl)methyl]-2H-1,4-benzoxazin-3(4H)-one dihydrochloride salt], the Ki on serotonin transporter stood at 82 nM; on human 5HT1A receptors, 0.68 nM.

`Cc1ccc2c3c(ccc2n1)OC[C@H](CN1CC[C@H](Oc2ccc4c(c2)NC(=O)CO4)C1)O3` (as salt: hydrochloride) [Example 8, 6-{[(3S)-1-{[(2S)-8-Methyl-2,3-dihydro[1,4]dioxino[2,3-f]quinolin-2-yl]methyl}pyrrolidin-3-yl]oxy}-2H-1,4-benzoxazin-3(4H)-one dihydrochloride salt]: the melting point was 183 °C (dec.).

For the compound `Cc1ccc2c3c(ccc2n1)OC[C@H](CN1CCC(Oc2ccc4c(c2)NC(=O)CO4)CC1)O3` (as salt: hydrochloride) [Example 1, 6-[(1-{[(2S)-8-methyl-2,3-dihydro[1,4]dioxino[2,3-f]quinolin-2-yl]methyl}piperidin-4-yl)oxy]-2H-1,4-benzoxazin-3(4H)-one dihydrochloride salt], the melting point was 216 to 219 °C (dec.).

Consider `Cc1ccc2c3c(ccc2n1)OC[C@H](CN1CCC(Cc2ccc4c(c2)NC(=O)CO4)CC1)O3` [Example 2, 6-[(1-{[(2S)-8-Methyl-2,3-dihydro[1,4]dioxino[2,3-f]quinolin-2-yl]methyl}piperidin-4-yl)methyl]-2H-1,4-benzoxazin-3(4H)-one dihydrochloride], for which the results for the Ki at serotonin transporter and on human 5HT1A receptors were 8.9 nM and 0.16 nM, respectively.

With `Cc1ccc2c3c(ccc2n1)OC[C@H](CN1CC[C@@H](Oc2ccc4c(c2)NC(=O)CO4)C1)O3` (as salt: hydrochloride) [Example 9, 6-{[(3R)-1-{[(2S)-8-Methyl-2,3-dihydro[1,4]dioxino[2,3-f]quinolin-2-yl]methyl}pyrrolidin-3-yl]oxy}-2H-1,4-benzoxazin-3(4H)-one dihydrochloride salt], the melting point is 183 °C (dec.).

As for `Cc1ccc2c3c(ccc2n1)OC[C@H](CN1CCC(Cc2ccc4c(c2)NC(=O)CO4)CC1)O3` (as salt: hydrochloride) [Example 2, 6-[(1-{[(2S)-8-Methyl-2,3-dihydro[1,4]dioxino[2,3-f]quinolin-2-yl]methyl}piperidin-4-yl)methyl]-2H-1,4-benzoxazin-3(4H)-one dihydrochloride], the melting point was 215 °C (dec.).

Take `Cc1ccc2c3c(ccc2n1)OC[C@H](CN1CCCC(Cc2ccc4c(c2)N(C)C(=O)CO4)C1)O3` (stereo partly drawn) (as salt: hydrochloride) [Example 15, 4-Methyl-6-[(1-{[(2S)-8-methyl-2,3-dihydro[1,4]dioxino[2,3-f]quinolin-2-yl]methyl}piperidin-3-yl)methyl]-2H-1,4-benzoxazin-3(4H)-one dihydrochloride salt]: the melting point was in the range of 249 to 251 °C.

As to `Cc1ccc2c3c(ccc2n1)OC[C@H](CN1CCC(Cc2ccc4c(c2)N(C)C(=O)CO4)CC1)O3` (as salt: hydrochloride) [Example 12, 4-Methyl-6-[(1-{[(2S)-8-methyl-2,3-dihydro[1,4]dioxino[2,3-f]quinolin-2-yl]methyl}piperidin-4-yl)methyl]-2H-1,4-benzoxazin-3(4H)-one dihydrochloride salt], the melting point was 205 to 208 °C.

For the compound `Cc1ccc2c3c(ccc2n1)OC[C@H](CNCCCOc1ccc2c(c1)NC(=O)CO2)O3` (as salt: hydrochloride) [Example 7, 6-[3-({[(2S)-8-Methyl-2,3-dihydro[1,4]dioxino[2,3-f]quinolin-2-yl]methyl}amino)propoxy]-2H-1,4-benzoxazin-3(4H)-one dihydrochloride salt], the melting point was 184 °C (dec.).

For `Cc1ccc2c3c(ccc2n1)OC[C@H](CNCCCCOc1ccc2c(c1)NC(=O)CO2)O3` (as salt: hydrochloride) [Example 6, 6-[4-({[(2S)-8-Methyl-2,3-dihydro[1,4]dioxino[2,3-f]quinolin-2-yl]methyl}amino)butoxy]-2H-1,4-benzoxazin-3(4H)-one dihydrochloride salt], the melting point was 143 °C (dec.).

For `Cc1ccc2c3c(ccc2n1)OC[C@H](CNCCCOc1ccc2c(c1)NC(=O)CO2)O3` [Example 7, 6-[3-({[(2S)-8-Methyl-2,3-dihydro[1,4]dioxino[2,3-f]quinolin-2-yl]methyl}amino)propoxy]-2H-1,4-benzoxazin-3(4H)-one dihydrochloride salt], the inhibition constant (Ki) on human 5HT1A receptors stood at 0.1 nM.

Broadly, the Ki is the equilibrium dissociation constant of an inhibitor or competing ligand from its target. Usually melting point stands for the temperature, or range, at which the solid turns liquid.
